The values below come from patent US20190015484A1, “NICOTINE-DEGRADING ENZYMES FOR TREATING NICOTINE ADDICTION AND NICOTINE POISONING” (priority 2015, published 2019).

The structures appear in SMILES notation. Read-outs that look alike come from different tables or passages of the source.

Data set [1] deals with neuronal nicotinic acetylcholine receptors (nAChR). The conditions noted are these: cited from earlier work.
The conditions of data set [2]: humans, cited from earlier work.
The target of data set [3] is neuronal nicotinic acetylcholine receptors (nAChR). To be noted: read-out: Ki for nAChr; cited from earlier work.
Data set [4] concerns Swiss Webster mice. Description: Toxicity of reaction product to mice. The class given is in vivo, mouse. How it is done:
Short-term experiments were performed by administrating 35, 70 140 ng of […] to male Swiss Webster mice (about 20 g, n=4 for each group) daily. Their viability and behavior was recorded.
Long-term experiments were performed by administrating 200 ng to the same species of mice (n=7) every other day for 5 weeks. At the end of the 5th week, the mice were euthanized and autopsied.
The clinical utility of an enzyme also relates to the toxicity and addictive properties of the reaction products. […] However, it has been reported as a likely precursor to 4-(methylnitrosamino)-1-(3-pyridyl)-1-butanone (NNK), a potential carcinogen.^20 To investigate any harmful effects of 4, toxicology studies were performed in which mice were administered pseudooxynicotine (4).
Mice received 35, 70 or 140 ng of compound 4 daily, which is representative of the typical range of nicotine amounts (4-72 ng/mL) found in smokers,^19 if fully converted to compound 4. […] In addition, the long-term exposure (5-weeks) of 4 was evaluated where the mice were dosing every other day with 200 ng compound 4 per dose.

For the compound `CN1CCC[C@H]1c1cccnc1` [nicotine, (S)-(−)-nicotine], the EC50 in data set [1] (read-out: EC50 for activation of nAChr, activation) is 60 nM; in data set [1] (read-out: EC50 for desensitization of nAChr, desensitization) it was 2.8 nM. The terminal half-life in data set [2] (regular smoking) was at least 20 h. In data set [2] (tobacco use), the elimination half-life was 2 to 3 h. Further, the inhibition constant (Ki) in data set [3] was 1 to 12 nM.

Take `CNCCCC(=O)c1cccnc1` [compound 4, 4-(methylamino)-1-(pyridine-3-yl)butan-1-one]: the “health and autopsy, long-term exposure” value in data set [4] (mice, 200 ng every other day, 5 weeks) is “remained healthy and autopsies did not reveal any sign of neoplasia or organ damage”. For the same compound, the “health and behavior, short-term” value in data set [4] (mice, 35, 70 or 140 ng daily, five days) is on record as “none of the mice exhibited any evidence of health or behavioral problems”.
